Source: patent US6407099B1, “Arylpiperidinopropanol and arylpiperazinopropanol derivatives and pharmaceuticals containing the same” (Suntory Limited, priority 1997, dated 2002)

Assays:
T-type Ca^2+ channel = test: T-type calcium channel inhibitory effect (whole-cell patch clamp, hippocampal CA1 pyramidal cells); format: cell-based, Wistar rats; settings: rat hippocampal CA1 pyramidal cells; peak current after 1 minute of application
Protocol: T-Type Calcium Channel Inhibitory Effect
The hippocampal CA1 pyramidal cells were isolated from Wistar rats (female, 1 week old) in according to the method reported by Takahashi et al. [K. Takahashi et al.; J. Pharmacol. Exp. Ther., 256, 169 (1991)] and the T-type calcium current was measured under conditions of a fixed membrane potential using the whole-cell configuration of the patch clamp technique. The effects of the compounds were evaluated from the rate of suppression of the peak current after 1 minute of application using the concentration clamp method.

Dopamine D2 receptor = target: T1, Dopamine D2 receptor (Rattus norvegicus, UniProt P61169); test: Dopamine D2 receptor blocking action ([^3H] raclopride, striatum membrane fraction); format: binding, Wistar male rats; settings: 1.0 nM [^3H] raclopride, 25° C., 1 hour
T1 construct: membrane fraction prepared from the striatum of Wistar male rats; from tissue; host or cells: rat striatum membrane fraction
T1 sequence (P61169 whole entry): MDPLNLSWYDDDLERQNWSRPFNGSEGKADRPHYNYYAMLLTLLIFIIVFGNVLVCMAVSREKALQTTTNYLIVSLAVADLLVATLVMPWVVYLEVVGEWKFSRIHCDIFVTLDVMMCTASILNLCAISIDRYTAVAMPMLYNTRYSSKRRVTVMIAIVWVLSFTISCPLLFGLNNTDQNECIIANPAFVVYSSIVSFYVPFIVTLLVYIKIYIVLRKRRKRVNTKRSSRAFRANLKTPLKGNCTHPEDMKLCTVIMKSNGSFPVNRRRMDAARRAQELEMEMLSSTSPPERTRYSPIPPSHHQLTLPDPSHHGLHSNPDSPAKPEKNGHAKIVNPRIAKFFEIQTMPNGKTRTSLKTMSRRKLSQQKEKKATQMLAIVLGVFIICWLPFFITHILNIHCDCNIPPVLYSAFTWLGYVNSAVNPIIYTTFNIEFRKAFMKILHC
Protocol: Dopamine D2 Receptor Blocking Action
57 μl of the membrane fraction prepared from the striatum of Wistar male rats (6 weeks old) was incubated together with the compound and 1.0 nM [^3H] raclopride in a buffer at 25° C. for 1 hour. A GF/C glass filter (0.1% polyethylene imine treatment) was used for B/F separation. A beta plate was used for measurement of the radioactivity to evaluate the effect of the compound.

DBA/2N type mice = test: Audiogenic seizure suppressing effect; format: in vivo; settings: compound 10 mg/kg, i.p., audio stimulus after 20 minutes, seizure score; for inhibition in vivo at 10 mg/kg: Mus musculus, ip, 20 min, read-out: Antiseizure effect (suppression rate %); for Antiseizure effect (suppression rate %): 10 mg/kg
Protocol: Audiogenic Seizure Suppressing Effect
The audiogenic seizure suppressing effect of the compounds was evaluated by the method of Sarro et al. [G. B. De Sarro et al., Br. J. Pharmacol., 93, 247 (1988)]. That is, the compound dissolved in 10% 2-hydroxypropyl-β-cyclodextrin was administered intraperitoneally to DBA/2N type mice (male, 3 weeks old). After 20 minutes, a supersonic washer was used to apply audio stimulus of at least 90 dB for 1 minute. The wild running (WR), clonic seizures (clonus), tonic seizures (tonus), and the respiratory arrest (RA) were observed. The seizure suppressing effect was evaluated from the rate of suppression of the average value of the seizure score found as 0=no response, 1=WR, 2=clonus, 3=tonus, and 4=RA.

Acute toxicity test = settings: male, mouse, in vivo, iv, ddY mice, death rate up to 24 hours after administration
Protocol: A pharmaceutical preparation was administered intravenously to ddY mice (male, 6 weeks old). The 50% lethal dosage LD50 of the acute toxicity was calculated by an ordinary method from the death rate up to 24 hours after administration.

Sodium channel = test: Inhibitory effect of veratrizine-induced sodium channel activity (synaptozome membrane potential, Rhodamine 6G); format: biochemical, Wistar rats; settings: compound 0.1 μM; rat brain synaptozomes, veratrizine-induced depolarization
From the text: Inhibitory Effect of Veratrizine-induced Sodium Channel Activity

lipid peroxidation = test: Lipid peroxidation suppressing effect (brain membrane preparation, malonaldehyde and 4-hydroxyalkenals); format: biochemical, Wistar rats; settings: rat brain membrane preparation, 37° C., 30 minutes
Protocol: Lipid Peroxidation Suppressing Effect
The whole brains of Wistar rats (10 weeks old, male) were excised and homogenized in the 10 times volumes of 50 mM phosphate-buffered solution (pH=7.4) (hereinafter referred to as PBS). The centrifuged supernatent was further diluted fourfold and the result was used as the brain membrane preparation. The membrane preparation was incubated in the presence of vehicle (0.5% DMSO) or compound at 37° C. for 30 minutes and an automatic oxidation reaction promoted. The reaction was stopped by 35% perchloric acid, then the total of the main decomposition products of the peroxidized lipids present in the centrifuged supernatent, that is, malonaldehyde and 4-hydroxyalkenals, was measured using a BIOXYTECH®/LPO-586™ peroxidized lipid colorimetric assay kit (OXIS International, Inc.) and used as an indicator of the lipid peroxidation.

Row | Structure (SMILES) | IC50 (T-type Ca^2+ channel) [µM] | IC50 (Dopamine D2 receptor) [µM] | inhibition in vivo at 10 mg/kg (DBA/2N type mice) [%] | LD50 at 24 h (Acute toxicity test) [mg/kg] | Anti-veratrizine effect (inhibiting rate %) (Sodium channel) [%] | IC50 (lipid peroxidation) [µM] | Antiseizure effect (suppression rate %) (DBA/2N type mice) [%]
1 | Cc1cc(OC[C@@H](O)CN2CCC(c3ccc(Oc4ccccc4)cc3)CC2)c(C)c(C)c1N [Compound 26, (2S)-1-[(4-amino-2,3,5-trimethyl)phenoxy]-3-[4-(4-phenoxyphenyl)piperidin-1-yl]-2-propanol] | 3.4 | 5.6 | 74 | 41 |  |  | 
2 | COc1ccc(N)cc1OC[C@@H](O)CN1CCC(c2ccc(Oc3ccc(F)cc3)cc2)CC1 [Compound 42, (2S)-1-[(5-amino-2-methoxy)phenoxy]-3-[4-(4-(4-fluorophenoxy)phenyl)piperidin-1-yl]-2-propanol] |  |  | 50 |  | 10.3 |  | 
3 | COc1ccc(N)cc1OC[C@@H](O)CN1CCC(c2ccc(Oc3ccccc3)cc2)CC1 [Compound 41, (2S)-1-[(5-amino-2-methoxy)phenoxy]-3-[4-(4-phenoxyphenyl)piperidin-1-yl]-2-propanol] | 4 | 11 | 60 | 36.7 | 22.1 | 0.87 | 
4 | COc1ccc(NCC(O)CN2CCC(c3ccc(Oc4ccccc4)cc3)CC2)c(C)c1 (stereo not shown) [Compound 53, 1-[4-(4-phenoxyphenyl)piperidin-1-yl]-3-[(4-methoxy-2-methyl)phenylamino]-2-propanol] | 2.2 | 11 |  |  |  |  | 46
5 | Nc1ccc(OC[C@@H](O)CN2CCC(c3ccc(Oc4ccccc4)cc3)CC2)cc1 [Compound 25, (2S)-1-(4-aminophenoxy)-3-[4-(4-phenoxyphenyl)piperidin-1-yl]-2-propanol] |  |  | 58 |  | 21 |  | 
6 | Cc1cc(N)c(C)c(C)c1OC[C@@H](O)CN1CCN(c2ccc(Cc3ccc(F)cc3)cc2)CC1 [Compound 40, (2S)-1-[(4-amino-2,3,6-trimethyl)phenoxy]-3-[4-(4-(4-fluorophenyl)methylphenyl)piperazin-1-yl]-2-propanol] |  | 12 | 80 | 49.1 |  |  | 
7 | Cc1cc(OC[C@@H](O)CN2CCN(c3ccc(Cc4ccc(F)cc4)cc3)CC2)c(C)c(C)c1N [Compound 28, (2S)-1-[(4-amino-2,3,5-trimethyl)phenoxy]-3-[4-(4-(4-fluorophenyl)methylphenyl)piperazin-1-yl]-2-propanol] | 3 | 12 | 76 | 47.3 |  |  | 
8 | COc1ccc(N)cc1OC[C@@H](O)CN1CCC(c2ccc(Cc3ccc(F)cc3)cc2)CC1 [Compound 43, (2S)-1-[(5-amino-2-methoxy)phenoxy]-3-[4-(4-(4-fluorophenyl)methylphenyl)piperidin-1-yl]-2-propanol] |  |  | 30 |  | 21 |  | 
9 | COc1cc(Cl)c(N)cc1OC[C@@H](O)CN1CCC(c2ccc(Oc3ccccc3)cc2)CC1 [Compound 49, (2S)-1-[(5-amino-4-chloro-2-methoxy)phenoxy]-3-[4-(4-phenoxyphenyl)piperidin-1-yl]-2-propanol] |  |  | 42 |  | 15.1 |  | 
10 | COc1ccc(NC[C@@H](O)CN2CCC(c3ccc(Oc4ccccc4)cc3)CC2)c(C)c1 [Compound 56, (2R)-1-[4-(4-phenoxyphenyl)piperidin-1-yl]-3-[(4-methoxy-2-methyl)phenylamino]-2-propanol] |  |  |  |  |  |  | 64
11 | Cc1cc(OC[C@@H](O)CN2CCC(c3ccc(Cc4ccc(F)cc4)cc3)CC2)c(C)c(C)c1N [Compound 27, (2S)-1-[(4-amino-2,3,5-trimethyl)phenoxy]-3-[4-(4-(4-fluorophenyl)methylphenyl)piperidin-1-yl]-2-propanol] |  | 6.3 | 55 |  | 32.1 | 0.46 | 
12 | Cc1cc(C)c(OC[C@@H](O)CN2CCC(c3ccc(Cc4ccc(F)cc4)cc3)CC2)c(N)c1 [Compound 47, (2S)-1-[(2-amino-4,6-dimethyl)phenoxy]-3-[4-(4-(4-fluorophenyl)methylphenyl)piperidin-1-yl]-2-propanol] |  |  | 56 |  |  |  | 
